Numbered stars: 1 amine (or outer) side, 2 acyl side, 3 side chain; on linkers, the order of the positions; unused ones are H or OH. Square brackets hold non-standard residues; d marks the D form. Peptide text beside a SMILES is read from it. * marks the point of attachment. β3hPhe(2R-OH) = O=C([C@H](O)[C@H](Cc1ccccc1)N[*:1])[*:2]; X1 = O=C(c1ccc(O)c(O)c1)*; Dap = NC[C@H](N)C(=O)O
Each compound was assayed against T1, recombinant human BACE-1 (rhBACE-1) (Homo sapiens, UniProt P56817) (assay: BACE1 inhibitory activity, reverse phase HPLC quantitation of N-terminal fragment of fluorogenic substrate). Details: 1 μL of inhibitor solution in DMSO (100 μM) in 50 μL reaction; MES buffer pH 5.0; 37° C., 60 minutes.
T1 construct: expressed as only an extracellular region (amino acid 1-460 residues) of recombinant human β-secretase; His tag (C); purchased R&D systems (Minneapolis, Minn.); host or cells: murine myeloma cell line NS0
Assay type: biochemical
Text: Experiment Regarding Measurement of BACE1 Inhibitory Activity
Enzyme Used in Measurement
As an enzyme having β-secretase activity, recombinant human BACE-1 (rhBACE-1) purchased from R&D systems (Minneapolis, Minn.) was used. rhBACE-1 is expressed as only an extracellular region (amino acid 1-460 residues) of recombinant human β-secretase, with a His tag at its carboxyl terminal in murine myeloma cell line, NS0. Purified secreted rhBACE1 is a mixture of a pro entity (about 75 kDa) and a mature entity (about 72 kDa).
Assessment of Enzyme Inhibitory Activity
Enzyme inhibitory activity of an inhibitor was assessed by quantitating an N-terminal fragment produced aftercleaving the substrate with BACE1 by reverse HPLC using (7-methoxycoumarin-4-yl)acetyl-[…]2,4-dinitrophenyl)-Arg-Arg-NH2 purchased from Peptide Institute (Osaka, Japan) as a substrate for BACE1. To 40 μL of 62.5 mM 2-(N-morpholino)ethansulfonic acid (MES)-CH3COOH—NaOH buffer (pH 5.0), were added 1 μL of a solution of an inhibitor diluted with DMSO (100 μM), 4 μL of rhBACE-1 (6.25 ng/μL), and 5 μL of an aqueous solution (50% DMSO) of 250 μM substrate (7-methoxycoumarin-4-yl)acetyl-[…]2,4-dinitrophenyl)-Arg-Arg-NH2 to initiate an enzyme reaction. After incubation at 37° C. for 60 minutes, 20 μL of 20% trichloroacetic acid was added to stop the reaction. And, inhibition % was calculated by measuring a fluorescent intensity of the N-terminal fragment (Ex, 328 nm; Em, 393 nm) using reverse phase HPLC (linear gradient of MeCN in aqueous TFA; flow rate, 1.0 mL/min).
BACE1 Inhibitory Activity
Enzyme inhibitory activity of an inhibitor was assessed by quantitating a N-terminal fragment produced after cleavage of a substrate with BACE1 by reverse phase HPLC using (7-methoxycoumarin-4-yl)acetyl-[…]2,4-dinitrophenyl)-Arg-Arg-NH2 purchased from Peptide Institute (Osaka, Japan) as a substrate for BACE1. Recombinant human BACE-1 purchased from R&D systems (Minneapolis, Minn.) was used. To 40 μL of 62.5 mM 2-(N-morpholino)ethansulfonic acid (MES)-CH3COOH—NaOH buffer (pH 5.0), were added 1 μL of a solution of an inhibitor diluted with DMSO (100 μM), 4 μL of BACE1 (6.25 ng/μL), and 5 μL of an aqueous solution (50% DMSO) of 250 μM substrate (7-methoxycoumarin-4-yl)acetyl-[…]2,4-dinitrophenyl)-Arg-Arg-NH2 to initiate an enzyme reaction. After incubation at 37° C. for 60 minutes, 20 μL of 20% trichloroacetic acid was added to stop a reaction. Inhibition % was calculated by measuring a fluorescent intensity of the N-terminal fragment (Ex, 328 nm; Em, 393 nm) using reverse phase HPLC (linear gradient of MeCN in aqueous TFA; flow rate, 1.0 mL/min).

T1 sequence (P56817 22-460 limits assumed): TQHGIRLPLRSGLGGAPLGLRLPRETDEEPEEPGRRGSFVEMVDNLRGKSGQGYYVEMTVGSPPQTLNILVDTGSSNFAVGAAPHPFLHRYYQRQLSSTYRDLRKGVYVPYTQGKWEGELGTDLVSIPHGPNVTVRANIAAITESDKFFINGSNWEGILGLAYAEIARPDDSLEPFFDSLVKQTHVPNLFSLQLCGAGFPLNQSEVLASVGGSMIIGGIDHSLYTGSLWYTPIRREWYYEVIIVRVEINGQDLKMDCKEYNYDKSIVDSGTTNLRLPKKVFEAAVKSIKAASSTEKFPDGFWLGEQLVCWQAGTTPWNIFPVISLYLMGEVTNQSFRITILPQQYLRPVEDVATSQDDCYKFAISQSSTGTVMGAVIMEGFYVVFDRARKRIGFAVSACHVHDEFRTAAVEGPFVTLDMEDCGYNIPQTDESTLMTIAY

| Compound | inhibition at 2 µM [%] | inhibition at 100 µM (stock) [%] |
| --- | --- | --- |
| CC(C)[C@H](NC(=O)[C@@H](NC(=O)[C@@H](N)CCC(=O)O)C(C)C)C(=O)N[C@@H](Cc1ccccc1)[C@@H](O)C(=O)N[C@@H](CC(=O)O)C(=O)N[C@@H](C)C(=O)N[C@@H](CCC(=O)O)C(=O)N[C@@H](Cc1ccccc1)C(=O)O [Example 123] (H-EVV[β3hPhe(2R-OH)]DAEF-OH) | 61.4 |  |
| CC(C)C[C@H](NC(=O)[C@@H](NC(=O)[C@@H](N)CNC(=O)c1nnn[nH]1)C(C)C)C(=O)N[C@@H](Cc1ccccc1)[C@@H](O)C(=O)Nc1cccc(C(N)=O)c1 [Example 124] | 97.3 |  |
| CC(C)C[C@H](NC(=O)[C@@H](NC(=O)[C@@H](N)CNC(=O)C(=O)O)C(C)C)C(=O)N[C@@H](CC1CCCCC1)[C@@H](O)C(=O)Nc1cccc(C(=O)O)c1 [Example 126] | 98.9 |  |
| CC(C)C[C@H](NC(=O)[C@@H](NC(=O)[C@@H](N)CNC(=O)c1nnn[nH]1)C(C)C)C(=O)N[C@@H](Cc1ccccc1)[C@@H](O)C(=O)Nc1cc(C(=O)O)cc(C(=O)O)c1 [Example 127] | 100 |  |
| Cc1c(NC(=O)[C@H](O)[C@H](Cc2ccccc2)NC(=O)[C@H](CC(C)C)NC(=O)[C@@H](NC(=O)[C@@H](N)CCC(=O)O)C(C)C)cccc1C(=O)O [Example 128] | 53.6 |  |
| COc1cc(NC(=O)[C@H](O)[C@H](Cc2ccccc2)NC(=O)[C@H](CC(C)C)NC(=O)[C@@H](NC(=O)[C@@H](N)CCC(=O)O)C(C)C)cc(OC)c1 [Example 129] | 61 |  |
| CC(C)C[C@H](NC(=O)[C@@H](NC(=O)[C@@H](N)CCC(=O)O)C(C)C)C(=O)N[C@@H](Cc1ccccc1)[C@@H](O)C(=O)Nc1cccc(O)c1 [Example 130] | 57.2 |  |
| CSC[C@H](NC(=O)[C@@H](NC(=O)[C@@H](N)CCC(=O)O)C(C)C)C(=O)N[C@@H](Cc1ccccc1)[C@@H](O)C(=O)Nc1cccc(C(=O)O)c1 [Example 131] | 74.1 |  |
| CCSC[C@H](NC(=O)[C@@H](NC(=O)[C@@H](N)CCC(=O)O)C(C)C)C(=O)N[C@@H](Cc1ccccc1)[C@@H](O)C(=O)Nc1cccc(C(=O)O)c1 [Example 132] | 68.1 |  |
| CC(C)C[C@H](NC(=O)[C@@H](NC(=O)[C@@H](N)CNC(=O)c1ccc(O)c(O)c1)C(C)C)C(=O)N[C@@H](Cc1ccccc1)[C@@H](O)C(=O)N[C@@H](CC(=O)O)C(=O)N[C@@H](C)C(=O)N[C@@H](CCC(=O)O)C(=O)O [Example 133] (H-[Dap](X1)VL[β3hPhe(2R-OH)]DAE-OH) |  | 71.5 |
| CC(C)[C@H](NC(=O)[C@@H](N)CNC(=O)C(=O)O)C(=O)N[C@@H](CC1CCCCC1)C(=O)N[C@@H](Cc1ccccc1)[C@@H](O)C(=O)Nc1cc(C(=O)O)cc(C(=O)O)c1 [Example 134] | 99.6 |  |
| CC(C)[C@H](NC(=O)[C@@H](N)CNC(=O)c1nnn[nH]1)C(=O)N[C@@H](CC1CCCCC1)C(=O)N[C@@H](Cc1ccccc1)[C@@H](O)C(=O)Nc1cc(C(=O)O)cc(C(=O)O)c1 [Example 135] | 99.8 |  |
| CC(C)[C@H](NC(=O)[C@@H](N)CNC(=O)c1nnn[nH]1)C(=O)N[C@@H](CC1CCCCC1)C(=O)N[C@@H](Cc1ccccc1)[C@@H](O)C(=O)Nc1cccc(C(=O)O)c1 [Example 137] | 99.5 |  |
| CC(C)C[C@H](NC(=O)[C@@H](NC(=O)[C@@H](N)CCC(=O)O)C(C)C)C(=O)N[C@@H](Cc1ccccc1)[C@@H](O)C(=O)Nc1cccc(C(=O)OCC(F)(F)F)c1 [Example 138] | 59.6 |  |
| CCCC[C@H](NC(=O)[C@@H](NC(=O)[C@@H](N)CCC(=O)O)C(C)C)C(=O)N[C@@H](Cc1ccccc1)[C@@H](O)C(=O)Nc1cccc(C(=O)O)c1 [Example 141] | 67.5 |  |
| CC(C)C[C@H](NC(=O)[C@@H](NC(=O)[C@@H](N)CNC(=O)c1cc(=O)[nH]c(=O)[nH]1)C(C)C)C(=O)N[C@@H](Cc1ccccc1)[C@@H](O)C(=O)Nc1cccc(C(=O)O)c1 [Example 142] | 89.8 |  |
| CC(C)C[C@H](NC(=O)[C@@H](NC(=O)[C@@H](N)CNC(=O)c1ccc[nH]1)C(C)C)C(=O)N[C@@H](Cc1ccccc1)[C@@H](O)C(=O)Nc1cccc(C(=O)O)c1 [Example 143] | 69 |  |

| Compound | inhibition at 2 µM [%] | inhibition at 100 µM (stock) [%] |
| --- | --- | --- |
| Cc1c(O)cccc1C(=O)NC[C@H](N)C(=O)N[C@H](C(=O)N[C@@H](CC(C)C)C(=O)N[C@@H](Cc1ccccc1)[C@@H](O)C(=O)Nc1cccc(C(=O)O)c1)C(C)C [Example 145] | 50.5 |  |
| CC(C)C[C@H](NC(=O)[C@@H](NC(=O)C(N)CNC(=O)c1ccccc1O)C(C)C)C(=O)N[C@@H](Cc1ccccc1)[C@@H](O)C(=O)Nc1cccc(C(=O)O)c1 (stereo partly shown) [Example 146] |  | 74.7 |
| Cc1cccc(C(=O)NC[C@H](N)C(=O)N[C@H](C(=O)N[C@@H](CC(C)C)C(=O)N[C@@H](Cc2ccccc2)[C@@H](O)C(=O)Nc2cccc(C(=O)O)c2)C(C)C)c1O [Example 147] | 59.5 |  |
| CC(C)C[C@H](NC(=O)[C@@H](NC(=O)[C@@H](N)CNC(=O)c1cc(O)cc(O)c1)C(C)C)C(=O)N[C@@H](Cc1ccccc1)[C@@H](O)C(=O)Nc1cccc(C(=O)O)c1 [Example 148] |  | 93.8 |
| CC(C)C[C@H](NC(=O)[C@@H](NC(=O)[C@@H](N)CCC(=O)O)C(C)C)C(=O)N[C@@H](Cc1ccccc1)[C@@H](O)C(=O)Nc1cc(Cl)c(O)c(Cl)c1 [Example 149] | 80.1 |  |
| CC(C)C[C@H](NC(=O)[C@@H](NC(=O)[C@@H](N)CNC(=O)c1cccc(O)c1)C(C)C)C(=O)N[C@@H](Cc1ccccc1)[C@@H](O)C(=O)Nc1cccc(C(=O)O)c1 [Example 150] | 90.8 |  |
| CC(C)C[C@H](NC(=O)[C@@H](NC(=O)[C@@H](N)CCC(=O)O)C(C)(C)C)C(=O)N[C@@H](Cc1ccccc1)[C@@H](O)C(=O)Nc1cccc(C(=O)O)c1 [Example 151] | 57 |  |
| CC[C@H](C)[C@H](NC(=O)[C@@H](NC(=O)[C@@H](N)CCC(=O)O)C(C)C)C(=O)N[C@@H](Cc1ccccc1)[C@@H](O)C(=O)Nc1cccc(C(=O)O)c1 [Example 153] | 65.8 |  |
| CC(C)C[C@H](NC(=O)[C@@H](NC(=O)[C@@H](N)CNC(=O)c1ccc(O)cc1)C(C)C)C(=O)N[C@@H](Cc1ccccc1)[C@@H](O)C(=O)Nc1cccc(C(=O)O)c1 [Example 154] | 69.9 |  |
| CC(C)C[C@H](NC(=O)[C@@H](NC(=O)[C@@H](N)CCC(=O)O)C(C)C)C(=O)N[C@@H](Cc1ccccc1)[C@@H](O)C(=O)NC1CCCC(C(=O)O)C1 (stereo partly shown) [Example 155] |  | 69.7 |
| CC(C)C[C@H](NC(=O)[C@@H](NC(=O)[C@@H](N)CCC(=O)O)C(C)C)C(=O)N[C@@H](Cc1ccccc1)[C@@H](O)C(=O)Nc1cc(Cl)cc(Cl)c1 [Example 156] |  | 78.3 |
| CCOC(=O)COc1c(Cl)cc(NC(=O)[C@H](O)[C@H](Cc2ccccc2)NC(=O)[C@H](CC(C)C)NC(=O)[C@@H](NC(=O)[C@@H](N)CCC(=O)O)C(C)C)cc1Cl [Example 158] | 66.1 |  |
| CC(C)[C@H](NC(=O)[C@@H](N)CCC(=O)O)C(=O)N[C@@H](Cc1cc2ccccc2[nH]1)C(=O)N[C@@H](Cc1ccccc1)[C@@H](O)C(=O)Nc1cccc(C(=O)O)c1 [Example 160] | 71.3 |  |
| CCC[C@H](NC(=O)[C@@H](NC(=O)[C@@H](N)CCC(=O)O)C(C)C)C(=O)N[C@@H](Cc1ccccc1)[C@@H](O)C(=O)Nc1cccc(C(=O)O)c1 [Example 161] | 64.7 |  |
| CC(C)C[C@H](NC(=O)[C@@H](NC(=O)[C@@H](N)CCC(=O)O)C(C)C)C(=O)N[C@@H](Cc1ccccc1)[C@@H](O)C(=O)NCc1ccc(Cl)c(Cl)c1 [Example 162] | 71.5 |  |
| CC(C)C[C@H](NC(=O)[C@@H](NC(=O)[C@@H](N)CCC(=O)O)C(C)C)C(=O)N[C@@H](Cc1ccccc1)[C@@H](O)C(=O)Nc1cc(Cl)c(OCC(=O)O)c(Cl)c1 [Example 163] | 88.3 |  |
| CC(C)[C@H](NC(=O)[C@@H](N)CCC(=O)O)C(=O)N[C@H](C(=O)N[C@@H](Cc1ccccc1)[C@@H](O)C(=O)Nc1cccc(C(=O)O)c1)c1ccccc1 [Example 164] | 64.1 |  |
